Assay results published in patent US10213433B2 (AbbVie Inc., priority 2010, dated 2019).

biological target: Bcl-2 protein (Homo sapiens (Human), UniProt P10415); assay: Bcl-2 binding TR-FRET (Time-Resolved Fluorescence-Resonance-Energy-Transfer) assay; settings: inhibition constant for binding to Bcl-2 protein
From the text: The smaller the Ki value, the greater is the binding affinity.

Bcl-2 protein, sequence (P10415 whole entry): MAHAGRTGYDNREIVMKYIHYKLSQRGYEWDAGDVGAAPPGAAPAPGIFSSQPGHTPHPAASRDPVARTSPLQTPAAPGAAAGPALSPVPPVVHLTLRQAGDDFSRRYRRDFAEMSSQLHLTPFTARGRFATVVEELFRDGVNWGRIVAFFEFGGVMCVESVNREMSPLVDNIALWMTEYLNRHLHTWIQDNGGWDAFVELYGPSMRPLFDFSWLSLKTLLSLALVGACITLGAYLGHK

SMILES | Ki [nM]
CC1(C)CCC(CN2CCN(c3ccc(C(=O)NS(=O)(=O)c4ccc(NCC5CN(CC#N)CCO5)c([N+](=O)[O-])c4)c(Oc4cnc5[nH]ccc5c4)c3)CC2)=C(c2ccc(Cl)cc2)C1 (stereo not shown) [Compound 214, 4-(4-{[2-(4-chlorophenyl)-4,4-dimethylcyclohex-1-en-1-yl]methyl}piperazin-1-yl)-N-{[4-({[4-(cyanomethyl)morpholin-2-yl]methyl}amino)-3-nitrophenyl]sulfonyl}-2-(1H-pyrrolo[2,3-b]pyridin-5-yloxy)benzamide] | < 0.01
CC1(C)CCC(CN2CCN(c3ccc(C(=O)NS(=O)(=O)c4ccc(N[C@@H]5CCN(S(C)(=O)=O)C5)c([N+](=O)[O-])c4)c(Oc4cnc5[nH]ccc5c4)c3)CC2)=C(c2ccc(Cl)cc2)C1 [Compound 149, 4-(4-{[2-(4-chlorophenyl)-4,4-dimethylcyclohex-1-en-1-yl]methyl}piperazin-1-yl)-N-[(4-{[(3R)-1-(methylsulfonyl)pyrrolidin-3-yl]amino}-3-nitrophenyl)sulfonyl]-2-(1H-pyrrolo[2,3-b]pyridin-5-yloxy)benzamide] | < 0.01
CC1(C)CCC(CN2CCN(c3ccc(C(=O)NS(=O)(=O)c4cnc(OC[C@]5(F)CC[C@@H](O)CC5)c(Cl)c4)c(Oc4cnc5[nH]ccc5c4)c3)CC2)=C(c2ccc(Cl)cc2)C1 [Compound 350, N-({5-chloro-6-[(cis-1-fluoro-4-hydroxycyclohexyl)methoxy]pyridin-3-yl}sulfonyl)-4-(4-{[2-(4-chlorophenyl)-4,4-dimethylcyclohex-1-en-1-yl]methyl}piperazin-1-yl)-2-(1H-pyrrolo[2,3-b]pyridin-5-yloxy)benzamide] | < 0.01
CN1CCC(Nc2ccc(S(=O)(=O)NC(=O)c3ccc(N4CCN(CC5=C(c6ccc(Cl)cc6)CC(C)(C)OC5)CC4)cc3Oc3cnc4[nH]ccc4c3)cc2S(=O)(=O)C(F)(F)F)CC1 [Compound 45, 4-(4-{[4-(4-chlorophenyl)-6,6-dimethyl-5,6-dihydro-2H-pyran-3-yl]methyl}piperazin-1-yl)-N-({4-[(1-methylpiperidin-4-yl)amino]-3-[(trifluoromethyl)sulfonyl]phenyl}sulfonyl)-2-(1H-pyrrolo[2,3-b]pyridin-5-yloxy)benzamide] | < 0.01
CC1(C)CCC(CN2CCN(c3ccc(C(=O)NS(=O)(=O)c4ccc(NCC5CN(C(CF)CF)C5)c([N+](=O)[O-])c4)c(Oc4cnc5[nH]ccc5c4)c3)CC2)=C(c2ccc(Cl)cc2)C1 [Compound 161, 4-(4-{[2-(4-chlorophenyl)-4,4-dimethylcyclohex-1-en-1-yl]methyl}piperazin-1-yl)-N-({4-[({1-[2-fluoro-1-(fluoromethyl)ethyl]azetidin-3-yl}methyl)amino]-3-nitrophenyl}sulfonyl)-2-(1H-pyrrolo[2,3-b]pyridin-5-yloxy)benzamide] | < 0.01
CC1(C)CCC(CN2CCN(c3ccc(C(=O)NS(=O)(=O)c4cnc(NC[C@H]5CC[C@@](C)(O)CC5)c([N+](=O)[O-])c4)c(Oc4cnc5[nH]ccc5c4)c3)CC2)=C(c2ccc(Cl)cc2)C1 [Compound 371, 4-(4-{[2-(4-chlorophenyl)-4,4-dimethylcyclohex-1-en-1-yl]methyl}piperazin-1-yl)-N-[(6-{[(trans-4-hydroxy-4-methylcyclohexyl)methyl]amino}-5-nitropyridin-3-yl)sulfonyl]-2-(1H-pyrrolo[2,3-b]pyridin-5-yloxy)benzamide] | < 0.001
CC1(C)CC(c2ccc(Cl)cc2)=C(CN2CCN(c3ccc(C(=O)NS(=O)(=O)c4ccc(NCC5CCOCC5)c([N+](=O)[O-])c4)c(Oc4cnc5[nH]ccc5c4)c3)CC2)CO1 [Compound 15, 4-(4-{[4-(4-chlorophenyl)-6,6-dimethyl-5,6-dihydro-2H-pyran-3-yl]methyl}piperazin-1-yl)-N-({3-nitro-4-[(tetrahydro-2H-pyran-4-ylmethyl)amino]phenyl}sulfonyl)-2-(1H-pyrrolo[2,3-b]pyridin-5-yloxy)benzamide] | < 0.01
CC1(C)CCC(CN2CCN(c3ccc(C(=O)NS(=O)(=O)c4ccc(NCc5ccc(OCCN6CCOCC6)cc5)c([N+](=O)[O-])c4)c(Oc4cnc5[nH]ccc5c4)c3)CC2)=C(c2ccc(Cl)cc2)C1 [Compound 198, 4-(4-{[2-(4-chlorophenyl)-4,4-dimethylcyclohex-1-en-1-yl]methyl}piperazin-1-yl)-N-[(4-{[4-(2-morpholin-4-ylethoxy)benzyl]amino}-3-nitrophenyl)sulfonyl]-2-(1H-pyrrolo[2,3-b]pyridin-5-yloxy)benzamide] | < 0.01
CC1(C)CCC(CN2CCN(c3ccc(C(=O)NS(=O)(=O)c4ccc(NCC5CN(C6COC6)C5)c([N+](=O)[O-])c4)c(Oc4cnc5[nH]ccc5c4)c3)CC2)=C(c2ccc(Cl)cc2)C1 [Compound 162, 4-(4-{[2-(4-chlorophenyl)-4,4-dimethylcyclohex-1-en-1-yl]methyl}piperazin-1-yl)-N-[(3-nitro-4-{[(1-oxetan-3-ylazetidin-3-yl)methyl]amino}phenyl)sulfonyl]-2-(1H-pyrrolo[2,3-b]pyridin-5-yloxy)benzamide] | < 0.01
CC(=O)N1CCC(Nc2ccc(S(=O)(=O)NC(=O)c3ccc(N4CCN(CC5=C(c6ccc(Cl)cc6)CC(C)(C)CC5)CC4)cc3Oc3cnc4[nH]ccc4c3)cc2[N+](=O)[O-])CC1 [Compound 53, N-({4-[(1-acetylpiperidin-4-yl)amino]-3-nitrophenyl}sulfonyl)-4-(4-{[2-(4-chlorophenyl)-4,4-dimethylcyclohex-1-en-1-yl]methyl}piperazin-1-yl)-2-(1H-pyrrolo[2,3-b]pyridin-5-yloxy)benzamide] | < 0.01
CC1(C)CCC(CN2CCN(c3ccc(C(=O)NS(=O)(=O)c4ccc(N[C@@H]5CCOC5)c([N+](=O)[O-])c4)c(Oc4cnc5[nH]ccc5c4)c3)CC2)=C(c2ccc(Cl)cc2)C1 [Compound 238, 4-(4-{[2-(4-chlorophenyl)-4,4-dimethylcyclohex-1-en-1-yl]methyl}piperazin-1-yl)-N-({3-nitro-4-[(3R)-tetrahydrofuran-3-ylamino]phenyl}sulfonyl)-2-(1H-pyrrolo[2,3-b]pyridin-5-yloxy)benzamide] | < 0.01
CC1(C)CCC(CN2CCN(c3ccc(C(=O)NS(=O)(=O)c4ccc(NCC5CCN(C6COC6)CC5)c([N+](=O)[O-])c4)c(Oc4cnc5[nH]ccc5c4)c3)CC2)=C(c2ccc(Cl)cc2)C1 [Compound 163, 4-(4-{[2-(4-chlorophenyl)-4,4-dimethylcyclohex-1-en-1-yl]methyl}piperazin-1-yl)-N-[(3-nitro-4-{[(1-oxetan-3-ylpiperidin-4-yl)methyl]amino}phenyl)sulfonyl]-2-(1H-pyrrolo[2,3-b]pyridin-5-yloxy)benzamide] | < 0.01
CC1(C)CCC(CN2CCN(c3ccc(C(=O)NS(=O)(=O)c4ccc(NC5CCN(C6CCOC6)CC5)c([N+](=O)[O-])c4)c(Oc4cnc5[nH]ccc5c4)c3)CC2)=C(c2ccc(Cl)cc2)C1 (stereo not shown) [Compound 143, 4-(4-{[2-(4-chlorophenyl)-4,4-dimethylcyclohex-1-en-1-yl]methyl}piperazin-1-yl)-N-({3-nitro-4-[(1-tetrahydrofuran-3-ylpiperidin-4-yl)amino]phenyl}sulfonyl)-2-(1H-pyrrolo[2,3-b]pyridin-5-yloxy)benzamide] | < 0.01
CC1(C)CCC(CN2CCN(c3ccc(C(=O)NS(=O)(=O)c4ccc(NCC5(N)CCOCC5)c([N+](=O)[O-])c4)c(Oc4cnc5[nH]ccc5c4)c3)CC2)=C(c2ccc(Cl)cc2)C1 [Compound 108, N-[(4-{[(4-aminotetrahydro-2H-pyran-4-yl)methyl]amino}-3-nitrophenyl)sulfonyl]-4-(4-{[2-(4-chlorophenyl)-4,4-dimethylcyclohex-1-en-1-yl]methyl}piperazin-1-yl)-2-(1H-pyrrolo[2,3-b]pyridin-5-yloxy)benzamide] | < 0.01
CC(C)(CO)CNc1ccc(S(=O)(=O)NC(=O)c2ccc(N3CCN(CC4=C(c5ccc(Cl)cc5)CC(C)(C)CC4)CC3)cc2Oc2cnc3[nH]ccc3c2)cc1[N+](=O)[O-] [Compound 146, 4-(4-{[2-(4-chlorophenyl)-4,4-dimethylcyclohex-1-en-1-yl]methyl}piperazin-1-yl)-N-({4-[(3-hydroxy-2,2-dimethylpropyl)amino]-3-nitrophenyl}sulfonyl)-2-(1H-pyrrolo[2,3-b]pyridin-5-yloxy)benzamide] | < 0.01
CC1(C)CCC(CN2CCN(c3ccc(C(=O)NS(=O)(=O)c4ccc(NCC5CNCCO5)c([N+](=O)[O-])c4)c(Oc4cnc5[nH]ccc5c4)c3)CC2)=C(c2ccc(Cl)cc2)C1 (stereo not shown) [Compound 113, 4-(4-{[2-(4-chlorophenyl)-4,4-dimethylcyclohex-1-en-1-yl]methyl}piperazin-1-yl)-N-({4-[(morpholin-2-ylmethyl)amino]-3-nitrophenyl}sulfonyl)-2-(1H-pyrrolo[2,3-b]pyridin-5-yloxy)benzamide] | < 0.01
O=C(NS(=O)(=O)c1ccc(NCC2CCOCC2)c([N+](=O)[O-])c1)c1ccc(N2CCN(CC3=C(c4ccc(Cl)cc4)CCC4(CCCC4)C3)CC2)cc1Oc1cnc2[nH]ccc2c1 [Compound 79, 4-(4-{[8-(4-chlorophenyl)spiro[4.5]dec-7-en-7-yl]methyl}piperazin-1-yl)-N-({3-nitro-4-[(tetrahydro-2H-pyran-4-ylmethyl)amino]phenyl}sulfonyl)-2-(1H-pyrrolo[2,3-b]pyridin-5-yloxy)benzamide] | < 0.01
CC1(C)CCC(CN2CCN(c3ccc(C(=O)NS(=O)(=O)c4ccc(NCC5CCCN(S(C)(=O)=O)C5)c([N+](=O)[O-])c4)c(Oc4cnc5[nH]ccc5c4)c3)CC2)=C(c2ccc(Cl)cc2)C1 (stereo not shown) [Compound 147, 4-(4-{[2-(4-chlorophenyl)-4,4-dimethylcyclohex-1-en-1-yl]methyl}piperazin-1-yl)-N-{[4-({[1-(methylsulfonyl)piperidin-3-yl]methyl}amino)-3-nitrophenyl]sulfonyl}-2-(1H-pyrrolo[2,3-b]pyridin-5-yloxy)benzamide] | < 0.01
CC1(C)CCC(CN2CCN(c3ccc(C(=O)NS(=O)(=O)c4cnc(NCC5CCOCC5)c([N+](=O)[O-])c4)c(Oc4cnc5[nH]ccc5c4)c3)CC2)=C(c2ccc(Cl)cc2)C1 [Compound 364, 4-(4-{[2-(4-chlorophenyl)-4,4-dimethylcyclohex-1-en-1-yl]methyl}piperazin-1-yl)-N-({5-nitro-6-[(tetrahydro-2H-pyran-4-ylmethyl)amino]pyridin-3-yl}sulfonyl)-2-(1H-pyrrolo[2,3-b]pyridin-5-yloxy)benzamide] | < 0.01
